Measurements reported in US20240390341A1, “METHODS FOR TREATING ADRENAL GLAND TUMORS” (Corcept Therapeutics Incorporated, priority 2023, published 2024).
“Also recorded” adds a separate entry of the source.

Tests used:
pituitary macroadenomas = conditions: following administration of relacorilant; cited from earlier work
[1] = tested on: cortisol-secreting adrenal adenoma; assay: CT imaging of adrenal gland tumor size in GRADIENT study patients; format: in vivo, human
Source text: (§1) The following protocol describes the GRADIENT clinical trial, an on-going, randomized, double-blind, placebo-controlled Phase 3 study which focuses on patients with hypercortisolism secondary to adrenal adenoma(s) or hyperplasia (ClinicalTrials.gov Identifier: NCT04308590). This study includes patients with cortisol-secreting adrenal adenomas or hyperplasia associated with DM/IGT (diabetes […] (DM) and/or impaired glucose tolerance (IGT)) and/or uncontrolled systolic hypertension. The study enrolled patients with hypercortisolism due to cortisol secreting adrenal adenomas or hyperplasia. These patients may or may not present the classic clinical manifestations of overt Cushing syndrome (i.e., facial appearance, buffalo hump, striae, etc.). Patients were identified as suffering from cortisol-secreting adrenal gland tumors based on abnormal dexamethasone suppression test (DST) and low ACTH. Patients could receive medications that were commonly used to treat diabetes, hypertension, or dyslipidemia if required. Following screening, those patients meeting study criteria were randomly assigned to receive doses of either placebo or relacorilant for 22 weeks of treatment. Patient follow-up was within 28 days of the last dose. Total patient participation in the study was up to 32 weeks. The GRADIENT study design is illustrated in FIG. 1. Patients discussed herein were participants in the GRADIENT study. […] The starting dose at Baseline was 100 mg relacorilant or matching placebo once daily for 2 weeks, after which the dose was increased to 200 mg. As tolerated, the dose was then increased by 100 mg to 300 mg once daily after 4 weeks, and, as tolerated, the dose was then increased to 400 mg once daily after another 4 weeks. If a dose was not tolerated, dose interruption, dose reduction, and dose re-escalation were allowed. Patients were maintained at a once-daily dose of 400 mg, or at their highest tolerated dose. Dose titrations after 18 weeks were not permitted. Patients who completed the study were permitted to continue relacorilant treatment in an extension study if they have at least 80% adherence with scheduled dosing (by capsule counts), and are expected to maintain clinical benefit from the study drug. Although not expected to regress, adrenal tumors progress very slowly, and rarely progress into overt Cushing syndrome ([…] et al. 2016 Eur J Endocrinol. 175 (2):G1-[…]. doi: 10.1530/EJE-16-0467). Patients receiving placebo continued to receive their previously prescribed medications; thus, although the placebo was not expected to provide additional benefit to those patients receiving placebo, neither was any detriment expected. Relacorilant was supplied as 100 mg capsules for oral dosing. […]

[2] = tested on: plasma ACTH, cortisol levels; assay: Plasma ACTH, cortisol and DST in a GRADIENT study patient; format: in vivo, human; conditions: FIG. 2 patient
Source text: as §1, with “expected.” for “expected. Relacorilant was supplied as 100 mg capsules for oral dosing.”

ACTH and cortisol levels = conditions: Cushing's syndrome patients; cited from earlier work
glucocorticoid receptor = glucocorticoid receptor (Homo sapiens, UniProt P04150); conditions: HepG2 cells; cited from earlier work
glucocorticoid receptor, sequence (P04150 whole entry): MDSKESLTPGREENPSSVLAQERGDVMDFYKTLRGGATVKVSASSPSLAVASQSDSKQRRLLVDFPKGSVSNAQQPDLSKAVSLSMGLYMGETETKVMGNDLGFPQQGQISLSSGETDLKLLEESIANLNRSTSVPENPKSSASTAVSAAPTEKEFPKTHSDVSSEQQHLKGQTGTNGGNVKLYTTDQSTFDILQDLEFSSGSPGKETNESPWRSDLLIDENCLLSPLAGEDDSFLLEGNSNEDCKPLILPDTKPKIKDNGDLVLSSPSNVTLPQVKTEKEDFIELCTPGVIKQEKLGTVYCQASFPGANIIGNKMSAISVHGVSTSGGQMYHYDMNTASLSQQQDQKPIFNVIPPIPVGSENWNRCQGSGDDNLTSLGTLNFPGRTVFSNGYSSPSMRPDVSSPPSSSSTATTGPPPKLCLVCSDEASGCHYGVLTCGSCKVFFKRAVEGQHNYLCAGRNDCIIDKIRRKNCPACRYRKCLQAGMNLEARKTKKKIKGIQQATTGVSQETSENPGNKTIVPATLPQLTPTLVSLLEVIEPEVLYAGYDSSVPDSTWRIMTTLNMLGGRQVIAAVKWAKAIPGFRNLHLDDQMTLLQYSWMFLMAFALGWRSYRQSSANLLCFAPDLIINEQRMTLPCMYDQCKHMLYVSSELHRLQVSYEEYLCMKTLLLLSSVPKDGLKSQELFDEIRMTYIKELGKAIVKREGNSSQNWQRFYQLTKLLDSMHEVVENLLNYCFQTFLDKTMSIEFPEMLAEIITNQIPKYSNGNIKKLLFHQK

Row | Structure (SMILES) | pituitary macroadenoma size (in words) (pituitary macroadenomas) | size of adrenal adenoma (CT) ([1]; FIG. 2 patient, benign cortisol-secreting adenoma, daily relacorilant 100 up to 400 mg/day for almost two years, initial size 4.2 cm) | degenerative changes inside the adenoma (CT) ([1]; FIG. 2 patient, after almost two years of daily relacorilant, not present in initial scan) | maximum tumor dimension (CT measurement line) ([1]; FIG. 3 patient, at least 3 months daily relacorilant 100 up to 400 mg/day, 34.09 mm / 34.08 mm before treatment) | change in adrenal gland tumor size following treatment (in words) ([1]; individual patients, daily relacorilant up to 400 mg/day) | cortisol levels (in words) ([2]; after relacorilant treatment) | dexamethasone suppression test (DST) (in words) ([2]; after relacorilant treatment) | ACTH levels (in words) ([2]; at 6 months of relacorilant administration) | plasma ACTH level ([2]; since 6 months of relacorilant, undetectable before treatment) | ACTH levels (in words) (ACTH and cortisol levels) | cortisol levels (in words) (ACTH and cortisol levels) | activity of tyrosine aminotransferase (TAT) (in words) (glucocorticoid receptor)
1 | Cn1cc(S(=O)(=O)N2CCC3=Cc4c(cnn4-c4ccc(F)cc4)C[C@]3(C(=O)c3cc(C(F)(F)F)ccn3)C2)cn1 [relacorilant, (R)-(1-(4-fluorophenyl)-6-((1-methyl-1H-pyrazol-4-yl)sulfonyl)-4,4a,5,6,7,8-hexahydro-1H-pyrazolo[3,4-g]isoquinolin-4a-yl)(4-(trifluoromethyl)pyridine-2-yl)methanone] | shrink | 3.1 cm | exhibits areas of degeneration; also recorded: developed fat droplets | 30.99 mm | reduced; also recorded: decreased | decreased | normalized | normalized | 15 to 18 pg/mL | – | – | –
2 | CC#C[C@]1(O)CC[C@H]2[C@@H]3CCC4=CC(=O)CCC4=C3[C@@H](c3ccc(N(C)C)cc3)C[C@@]21C [mifepristone] | – | – | – | – | – | – | – | – | – | increased | increased | decreases
